Patent US12022832B2, “Compounds and methods for treating nematode infections” (The Governing Council of The University of Toronto, priority 2018, dated 2024)
Like-named read-outs stand apart in the source and are kept apart here.

Key:
C. elegans (L1) = test: C. elegans L1 viability, three day protocol; format: in vivo, Caenorhabditis elegans; conditions: for EC (80% dead): Caenorhabditis elegans, read-out: C. elegans (L1 viability): lowest concentration tested in which at least 80% of animals were dead
M. incognita (J2) = test: M. incognita J2 viability in vitro; format: in vivo, Meloidogyne incognita; conditions: assay done using 45 uM; for M. incognita (J2 viability in vitro): concentration giving >20% and <80% death: 48 or 72 hours, other compounds
M. incognita (eggs) = test: M. incognita egg-hatch assay; format: in vivo, Meloidogyne incognita; conditions: 45 uM of each compound, ~50 eggs per well; effect threshold not stated
C. elegans = C. elegans acute motor (rubber-band, convulsion/paralysis) phenotype on solid substrate; format: in vivo, Caenorhabditis elegans; conditions: for C. elegans acute motor phene: concentration at which 10-50% of the animals exhibit convulsion/paralysis phenotypes / C. elegans acute motor phene: lowest concentration at which 50% of the young adult animals exhibit convulsion/paralysis phenotypes: solid substrate; for C. elegans acute motor phene: concentration at which 10-50% of the animals exhibit convulsion/paralysis phenotypes: 80 minutes, compounds 55-12-6, 55-12-9, 55-12-12, 55-12-21, 55-12-23; for C. elegans acute motor phene: lowest concentration at which 50% of the young adult animals exhibit convulsion/paralysis phenotypes: 80 minutes of incubation
Excerpt: Worms are scored for the indicated phenotype (see legend); convulsions along the circumferential axis is characterized as the ‘shaker’ phenotype in C. elegans; convulsions along the anterior-posterior axis is characterized as the ‘rubber-band’ phenotype in C. elegans. 18 young-adult animals were scored at each time-point for rubber-band (animals spontaneously contract or do so upon touch on the nose with a platinum wire), hyperactive movement (observing rapid lateral nose movement) and shaker (spontaneous circumferential rotations). […] Data are showing the mean number of animals with each phenotype.
If a penetrant phenotype is observed, a dose-response analysis is performed; the EC50 is shown.
Each compound was added to the MYOB substrate before pouring to achieve desired concentration after diffusion through the media. The final concentration of dimethyl sulfoxide (DMSO) in each of the wells was […]. Young adult or fourth-staged larval worms are transferred into each well using a platinum wire pick.
˜25 young adult animals of each indicated strain were picked using a platinum wire onto 2% MYOB agar containing the indicated drug condition with 1% DMSO. […] 18 animals were scored per trial; data are the mean response of 2-3 replicates showing the standard error of the mean.

C. elegans (adult) = test: C. elegans adult viability; format: in vivo, Caenorhabditis elegans; conditions: 72 hours, relative to no-drug controls
P. pacificus (L1) = test: P. pacificus L1 viability; format: in vivo, Pristionchus pacificus; conditions: 72 hours; for P. pacificus (L1 viability): lowest concentration tested in which at least 80% of animals were dead: relative to no-drug controls
C. elegans (dauer) = test: C. elegans dauer viability; format: in vivo, Caenorhabditis elegans; conditions: relative to no-drug controls; for C. elegans (dauer viability): lowest concentration tested in which at least 80% of animals were dead: 72 hours
P. hermaphrodita (L1) = test: P. hermaphrodita L1 viability; format: in vivo, Phasmarhabditis hermaphrodita; conditions: 72 hours; for P. hermaphrodita (L1 viability): lowest concentration tested in which at least 80% of animals were dead: relative to no-drug controls; for P. hermaphrodita (L1 viability): lowest concentration tested in which greater than 20% of animals were dead: compounds 55-6, 55-12-20, 55-12-22
M. incognita = M. incognita Quick Soil Test (tomato); format: in vivo, Meloidogyne incognita; conditions: 45 uM, ~2000 J2 per tomato plant, worms in soil 4 days; for M. incognita (Quick Soil Test): concentration giving >80% killing: J2s counted in root tissue; for M. incognita (Quick Soil Test): concentration giving 10-20% killing: other compounds
[1] = 72 hours, relative to no-drug controls

CCCc1ccc(-c2ccc(OC(F)F)cc2)cn1 [IIIaa (wact-55-12-7), 5-(4-(difluoromethoxy)phenyl)-2-propylpyridine]
EC (80% dead) (C. elegans (L1); [1]): 30 µM | M. incognita (J2 viability in vitro): concentration giving >80% death (M. incognita (J2); 48 or 72 hours of incubation): 45 µM

CCCc1ccc(-c2ccc(OC(F)F)cn2)cc1 [IIIbb (wact-55-12-8), 5-(difluoromethoxy)-2-(4-propylphenyl)pyridine]
EC (80% dead) (C. elegans (L1); 72 h): 60 µM | M. incognita (J2 viability in vitro): concentration giving >20% and <80% death (M. incognita (J2)): np

CCCc1ccc(-c2ccc(OC(F)F)nc2)cc1 [IIIcc (wact-55-12-9), 2-(difluoromethoxy)-5-(4-propylphenyl)pyridine]
M. incognita (Egg Hatch Rate) (M. incognita (eggs)): np | EC (80% dead) (C. elegans (L1); 72 h): 60 µM | M. incognita (J2 viability in vitro): concentration giving >20% and <80% death (M. incognita (J2)): np | C. elegans acute motor phene: concentration at which 10-50% of the animals exhibit convulsion/paralysis phenotypes (C. elegans): 60 μM

CCc1ccc(-c2ccc(OC(F)F)cc2)nc1 [IIIdd (wact-55-12-10), 2-(4-(difluoromethoxy)phenyl)-5-ethylpyridine]
C. elegans (adult viability): lowest concentration tested in which at least 80% of animals were dead (C. elegans (adult)): np | EC (80% dead) (C. elegans (L1); [1]): 30 µM | P. pacificus (L1 viability): lowest concentration tested in which at least 80% of animals were dead (P. pacificus (L1)): 15 µM | C. elegans (dauer viability): lowest concentration tested in which at least 80% of animals were dead (C. elegans (dauer)): 30 µM | P. hermaphrodita (L1 viability): lowest concentration tested in which at least 80% of animals were dead (P. hermaphrodita (L1)): 15 µM

Cc1ccc(-c2ccc(OC(F)F)cc2)nc1 [IIIee (wact-55-12-11), 2-(4-(difluoromethoxy)phenyl)-5-methylpyridine]
EC (80% dead) (C. elegans (L1); [1]): 60 µM | M. incognita (J2 viability in vitro): concentration giving >20% and <80% death (M. incognita (J2)): np

FC(F)Oc1ccc(-c2ccccn2)cc1 [IIIff (wact-55-12-12), 2-(4-(difluoromethoxy)phenyl)pyridine]
C. elegans (adult viability): lowest concentration tested in which at least 80% of animals were dead (C. elegans (adult)): np | M. incognita (Quick Soil Test): concentration giving >80% killing (M. incognita): 45 µM | C. elegans (L1 viability): lowest concentration tested in which at least 80% of animals were dead (C. elegans (L1); [1]): np | P. pacificus (L1 viability): lowest concentration tested in which at least 80% of animals were dead (P. pacificus (L1)): 60 µM | M. incognita (J2 viability in vitro): concentration giving >20% and <80% death (M. incognita (J2)): 45 µM | C. elegans (dauer viability): lowest concentration tested in which at least 80% of animals were dead (C. elegans (dauer)): np | P. hermaphrodita (L1 viability): lowest concentration tested in which at least 80% of animals were dead (P. hermaphrodita (L1)): 60 µM | C. elegans acute motor phene: concentration at which 10-50% of the animals exhibit convulsion/paralysis phenotypes (C. elegans): 60 μM

CC#Cc1ccc(-c2ccc(OC(F)F)cc2)nc1 [IIIhh (wact-55-12-14), 2-(4-(difluoromethoxy)phenyl)-5-(prop-1-yn-1-yl)pyridine]
EC (80% dead) (C. elegans (L1); [1]): 7.5 µM | M. incognita (J2 viability in vitro): concentration giving >20% and <80% death (M. incognita (J2)): np

NCc1ccc(-c2ccc(OC(F)F)cc2)nc1 [IIIkk (wact-55-12-17), (6-(4-(difluoromethoxy)phenyl)pyridin-3-yl)methanamine]
M. incognita (Egg Hatch Rate) (M. incognita (eggs)): np | M. incognita (Hatching Mobility) (M. incognita (eggs)): np | C. elegans (L1 viability): lowest concentration tested in which at least 80% of animals were dead (C. elegans (L1); [1]): np | M. incognita (J2 viability in vitro): concentration giving >20% and <80% death (M. incognita (J2)): np | C. elegans acute motor phene: lowest concentration at which 50% of the young adult animals exhibit convulsion/paralysis phenotypes (C. elegans): np

CCCc1cccc(-c2ccc(OC(F)F)cc2)n1 [IIInn (wact-55-12-20), 2-(4-(difluoromethoxy)phenyl)-6-propylpyridine]
C. elegans (adult viability): lowest concentration tested in which at least 80% of animals were dead (C. elegans (adult)): np | C. elegans (L1 viability): lowest concentration tested in which at least 80% of animals were dead (C. elegans (L1); [1]): np | P. pacificus (L1 viability): lowest concentration tested in which greater than 20% of animals were dead (P. pacificus (L1); compound 55-12-20): 30 µM | C. elegans (dauer viability): lowest concentration tested in which at least 80% of animals were dead (C. elegans (dauer)): np | P. hermaphrodita (L1 viability): lowest concentration tested in which greater than 20% of animals were dead (P. hermaphrodita (L1)): 60 µM | C. elegans acute motor phene: lowest concentration at which 50% of the young adult animals exhibit convulsion/paralysis phenotypes (C. elegans): np

CCCc1cccnc1-c1ccc(OC(F)F)cc1 [IIIpp (wact-55-12-22), 2-(4-(difluoromethoxy)phenyl)-3-propylpyridine]
C. elegans (adult viability): lowest concentration tested in which at least 80% of animals were dead (C. elegans (adult)): np | C. elegans (L1 viability): lowest concentration tested in which at least 80% of animals were dead (C. elegans (L1); [1]): np | P. pacificus (L1 viability): lowest concentration tested in which at least 80% of animals were dead (P. pacificus (L1)): np | C. elegans (dauer viability): lowest concentration tested in which at least 80% of animals were dead (C. elegans (dauer)): np | P. hermaphrodita (L1 viability): lowest concentration tested in which greater than 20% of animals were dead (P. hermaphrodita (L1)): 60 µM | C. elegans acute motor phene: lowest concentration at which 50% of the young adult animals exhibit convulsion/paralysis phenotypes (C. elegans): np

CCCc1cnc(-c2ccc(OC(F)F)cc2)nc1 [IIIss (wact-55-12-25), 2-(4-(difluoromethoxy)phenyl)-5-propylpyrimidine]
M. incognita (J2 viability in vitro): concentration giving >20% and <80% death (M. incognita (J2)): np

CC(C)Cc1ccc(-c2ccc(OC(F)F)cc2)nc1 [IIItt (wact-55-12-26), 2-(4-(difluoromethoxy)phenyl)-5-isobutylpyridine]
M. incognita (Hatching Mobility) (M. incognita (eggs)): np | M. incognita (Quick Soil Test): concentration giving 10-20% killing (M. incognita): 45 uM | EC (80% dead) (C. elegans (L1); [1]): 30 µM | M. incognita (J2 viability in vitro): concentration giving >20% and <80% death (M. incognita (J2)): np

CCCCc1ccc(-c2ccc(OC(F)F)cc2)nc1 [IIIuu (wact-55-12-27), 5-butyl-2-(4-(difluoromethoxy)phenyl)pyridine]
M. incognita (Egg Hatch Rate) (M. incognita (eggs)): np | EC (80% dead) (C. elegans (L1); [1]): 15 µM | M. incognita (J2 viability in vitro): concentration giving >20% and <80% death (M. incognita (J2)): np

CCCCc1ccc(-c2ccc(OC)cc2)nc1 [IIIw (wact-55-12-28), 5-butyl-2-(4-methoxyphenyl)pyridine]
M. incognita (Quick Soil Test): concentration giving >80% killing (M. incognita): 45 µM | EC (80% dead) (C. elegans (L1); [1]): 15 µM | M. incognita (J2 viability in vitro): concentration giving >20% and <80% death (M. incognita (J2)): 45 µM

CCCc1ccc(-c2ccc(SC(F)F)cc2)nc1 [IIIy (wact-55-12-5), 2-(4-((difluoromethyl)thio)phenyl)-5-propylpyridine]
EC (80% dead) (C. elegans (L1); [1]): 30 µM | M. incognita (J2 viability in vitro): concentration giving >20% and <80% death (M. incognita (J2)): np

CCCc1ccc(-c2ccc(OC(F)F)cc2)cc1 [IIIz (wact-55-12-6), 4-(difluoromethoxy)-4′-propyl-1,1′-biphenyl]
M. incognita (Egg Hatch Rate) (M. incognita (eggs)): np | C. elegans (adult viability): lowest concentration tested in which at least 80% of animals were dead (C. elegans (adult)): np | M. incognita (Quick Soil Test): concentration giving 10-20% killing (M. incognita): 45 uM | EC (80% dead) (C. elegans (L1); [1]): 30 µM | M. incognita (J2 viability in vitro): concentration giving >20% and <80% death (M. incognita (J2)): np | C. elegans (dauer viability): concentration where 10-20% death is exhibited (C. elegans (dauer); compounds 55-2, 55-8, 55-9, 55-12-6): 60 μM | P. hermaphrodita (L1 viability): lowest concentration tested in which at least 80% of animals were dead (P. hermaphrodita (L1)): 7.5 µM | C. elegans acute motor phene: concentration at which 10-50% of the animals exhibit convulsion/paralysis phenotypes (C. elegans): 60 μM

CCCCCCCCCCCCCC(=O)O[C@@H]1[C@@H](C)[C@@]2(O)[C@@H](C=C(CO)C[C@]3(O)C(=O)C(C)=C[C@@H]23)[C@@H]2C(C)(C)[C@]12OC(C)=O [PMA, phorbol myristate acetate, reference compound]
induction of rubber-band (RB) convulsions (C. elegans; in vivo): fail to induced a RB phenotype
